Assay results taken from US6147076A, “Analogues of N-acetylardeemin, method of preparation and uses thereof” (priority 1996, dated 2000).
Several values for one entry are separate records, joined by “and”; a condition that tells them apart may be missing. Equal values may be shown once. Read-outs that look alike come from different tables or passages of the source. Numbered stars: 1 amine (or outer) side, 2 acyl side, 3 side chain; on linkers, the order of the positions; unused ones are H or OH. Bridge positions count the residues as written; N and C are the ends. Square brackets hold non-standard residues; d marks the D form. Peptide text beside a SMILES is read from it. I, II: the chains in the order shown. Actinocin(9to1) = Cc1c2oc3c(C)ccc(C(=O)[*:1])c3nc-2c(C(=O)[*:2])c(N)c1=O; NMeV = CN[C@H](C(=O)O)C(C)C; Sar = CNCC(=O)O

Legend:
[1] = test system: DC-3F/ADX cells; test: Cytotoxicity toward DC-3F/ADX cells; format: cell-based, hamster; settings: for IC50: DC3F/ADX, DC-3F/ADX; for (C)/(A): IC50 ratio DC-3F/ADX to DC-3F, * collaterally sensitive
[2] = test system: DC-3F/ADII cells
[3] = test system: DC-3F/ADII cells; test: cells; settings: Mesocricetus auratus, DC3F
[4] = test system: DC-3F hamster lung cells; test: Cytotoxicity toward DC-3F hamster lung cells
[5] = test system: CCRF-CEM/VM-1 cells; test: Cytotoxicity toward VM-26-resistant CCRF-CEM/VM-1 cells (mutated Topo II gene); format: cell-based, human
[6] = test system: CCRF-CEM cells; test: Intracellular accumulation of [3H]vinblastine in CCRF-CEM cells; format: cell-based, human; settings: 30 μM
Protocol: (§1) *Cells were preloaded with [^3 H]
(§2) times (or without wash) with 100 ml cold medium to remove extracellular
(§3) with or without a reverse prenyl compound or an MDRreversing agent. Cells
(§4) were then separated from radioactive medium by microfuge oillayer method.
(§5) Extracellular space counts carried down # by cells (^3 HInulin space
(§6) were subtracted from the total radioactive counts.

[7] = test system: CCRF-CEM/VLB-100 cells; test: Intracellular accumulation of [3H]vinblastine in CCRF-CEM/VLB-100 cells; format: cell-based, human; settings: 30 μM
Protocol: as §1, §2, §3, §4, §5, §6

[8] = test system: CCRF-CEM/VBL100 cells
[9] = test system: CCRF-CEM/VBL100 cells; test: cells; settings: Homo sapiens
[10] = test system: CCRF-CEM cells; test: Cytotoxicity / growth inhibition of CCRF-CEM leukemic cells
[11] = test system: CCRF-CEM cells; test: Influx of [3H]VP-16 in CCRF-CEM cells; format: cell-based, human; settings: 100 μM, in words
[12] = test system: P388/O tumor; test: Combination therapy of adriamycin & 5-N-acetyl-ardeemin or verapamil in B6D2F1 mice bearing P388/O tumor; settings: VPML 70 mg/kg (then 35);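 further: male BDF mice carrying P388/O given intraperitoneally, dosing begun on day 1 on a QDX4, QWX2 schedule, five animals per dose level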
Description: ^a Male BDF mice were inoculated P388/O, 10^6 cells/mouse, i.p. a
starting day 1, QDX4, QWX2.

[13] = test system: P388/DX tumor; test: Combination therapy of adriamycin & 5-N-acetyl-ardeemin or verapamil in B6D2F1 mice bearing P388/DX tumor; settings: VPML 70 mg/kg (then 35);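 further: male BDF mice implanted intraperitoneally with P388/DX cells, 10^6 per mouse, dosed from day 1 on a QDX4, QWX2 schedule, five mice per dose group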
Description: ^a Male BDF mice were inoculated P388/DX, 10^6 cells/mouse, i.p.
starting day 1, QDX4, QWX2. There were five mice at every dose and ten

[14] = test system: CCRF-CEM cells
[15] = test system: DC-3F hamster lung cells; settings: dc-3f cells
[16] = Mesocricetus auratus, DC3F, read-out: IC50 (A), mean ± spread, mean of the determinations
[17] = Mesocricetus auratus, DC3F, read-out: IC50 (A), single determinations
[18] = read-out: IC50 (A), single determinations
[19] = Table 5A, CCRF-CEM/VLB, * collaterally sensitive vs parent
[20] = read-out: IC50, mean ± spread, Table 5A, CCRF-CEM/VLB, mean
[21] = Homo sapiens, Table 5A, single determinations
[22] = Homo sapiens, read-out: IC50, mean ± spread, Table 5A, CCRF-CEM, mean
[23] = Table 5A, single determinations

Cc1c2oc3c(C)ccc(C(=O)N[C@@H]4C(=O)N[C@H](C(C)C)C(=O)N5CCC[C@H]5C(=O)N(C)CC(=O)N(C)[C@@H](C(C)C)C(=O)O[C@@H]4C)c3nc-2c(C(=O)N[C@@H]2C(=O)N[C@H](C(C)C)C(=O)N3CCC[C@H]3C(=O)N(C)CC(=O)N(C)[C@@H](C(C)C)C(=O)O[C@@H]2C)c(N)c1=O [Actinomycin D, reference compound] (I: T[dV]P[Sar][NMeV] / II: T[dV]P[Sar][NMeV]; ester I:1-I:C, II:1-II:C; linker I:N-II:N via Actinocin(9to1))
(C)/(A), resistance in words [1]: Very Resistant
IC50 [1]: 1.23 µM
(C)/(A) [1]: 4738.5 X
(B)/(A), resistance in words [2]: Resistant
(B)/(A) ([2]; IC50 ratio DC-3F/ADII to DC-3F, * collaterally sensitive): 349.6 X
IC50 ([3]; read-out: IC50 (B), DC-3F/ADII): 0.0909 µM
IC50 [4, 16]: 0.00026 ± 5e-05 µM
IC50 [4, 17]: 0.00021 µM
IC50 [4, 18]: 0.00031 µM

C=CC(C)(C)C12CC3C(=O)N(C(C)=O)C(C)C(=O)N3C1Nc1ccccc12 (centres unmarked) [Imide-Ac-DKP 14(A), imide acetate diketopiperazine]
IC50 ([5]; Homo sapiens, CCRF-CEM, Table 5A, CCRF-CEM/VM-1, read-out: IC50): 50 µM
[3H]vinblastine accumulation ([6]; washed): 30.18 fmole/10^3 cells
[3H]vinblastine accumulation ([6]; without wash): 34.87 fmole/10^3 cells
[3H]vinblastine accumulation ([7]; washed): 4.52 fmole/10^3 cells
[3H]vinblastine accumulation ([7]; without wash): 18.93 fmole/10^3 cells
IC50 [8, 19]: 36.2 µM
IC50 [9, 19]: 39.7 µM
IC50 ([9]; Table 6, CCRF-CEM/VBL): 39.7 µM
IC50 [9, 20]: 38 ± 1.8 µM
IC50 [10, 21]: 48.1 µM
IC50 ([10]; Homo sapiens, Table 6, CCRF-CEM): 48.1 µM
IC50 [10, 22]: 61 ± 13.1 µM
IC50 [10, 23]: 47.9 µM and 87 µM

COc1ccc(CCN(C)CCCC(C#N)(c2ccc(OC)c(OC)c2)C(C)C)cc1OC (centres unmarked) [Verapamil, verapamil]
IC50 ([5]; Table 6B, CCRF-CEM/VM-1, read-out: IC50 of reversing agent): 118 µM
VP-16 accumulation [11]: also increased VP-16 accumulation
collateral sensitivity ([2]; in words): Collateral sensitivity is also observed
IC50 ([8]; read-out: IC50 of reversing agent, Table 6B, CCRF-CEM/VBL): 118 µM
IC50 ([10]; read-out: IC50 of reversing agent, Table 6B): 296 µM
% ILS [12]: +1%
MST [12]: 7.7 days
Days survived ([12]; individual mice 1-5): 7.0 days and 8.0 days and 8.6 days
% ILS [13]: +5%
MST [13]: 7.9 days
Days survived ([13]; individual mice 1-5): 6.5 days and 7.25 days and 8.25 days and 9.25 days

C=CC(C)(C)C12CC3C(=O)NCC(=O)N3C1N(C(C)=O)c1ccccc12 (centres unmarked) [5N-Ac-8-desMe-DKP, 5N-acetyl diketopiperazine]
IC50 ([5]; Homo sapiens, CCRF-CEM): 35.8 µM
IC50 [9, 20]: 19.9 ± 13 µM
IC50 [10, 21]: 21.4 µM
IC50 [10, 22]: 22.1 ± 0.7 µM
IC50 [10, 23]: 22.7 µM

C=CC(C)(C)C12CC3C(=O)NCC(=O)N3C1Nc1ccccc12 (centres unmarked) [Desmethyl-DKP]
IC50 [1]: 199 µM
(C)/(A) [1]: 1.5 X
(B)/(A) [2]: 1.3 X
IC50 ([3]; read-out: IC50 (B)): 103 µM
IC50 [4, 16]: 131 ± 14.7 µM
IC50 [4, 17]: 116 µM
IC50 [4, 18]: 145 µM

COc1cc(NS(C)(=O)=O)ccc1Nc1c2ccccc2nc2ccccc12 [M-AMSA, reference compound]
IC50 ([5]; ccrf-cem/vm-1 cells): 2.55 µM
IC50 ([2]; dc-3f/adii cells): 0.032 µM
IC50 [14]: 0.184 µM
IC50 ([8]; ccrf-cem/vbl100 cells): 0.656 µM

C=CCC12CC3c4nc5ccccc5c(=O)n4C(C)C(=O)N3C1N(C(C)=O)c1ccccc12 (centres unmarked) [5-N-Ac"Allyl" ardeemin, "Allyl" 5-N-acetylardeemin]
IC50 ([5]; ccrf-cem/vm-1 cells): 45 µM
IC90 ([5]; ccrf-cem/vm-1 cells): 916 µM
[3H]vinblastine accumulation ([6]; washed): 28.88 fmole/10^3 cells
[3H]vinblastine accumulation ([6]; without wash): 33.35 fmole/10^3 cells
[3H]vinblastine accumulation ([7]; washed): 6.18 fmole/10^3 cells
[3H]vinblastine accumulation ([7]; without wash): 27.21 fmole/10^3 cells
IC80 [15]: 17.4 µM
IC90 [15]: 56.2 µM
IC50 ([2]; dc-3f/adii cells): 5.21 µM
IC90 ([2]; dc-3f/adii cells): 34.7 µM
IC50 [14]: 53.3 µM
IC90 [14]: 888 µM
IC50 ([8]; ccrf-cem/vbl100 cells): 35.8 µM
IC90 ([8]; ccrf-cem/vbl100 cells): 81.1 µM
IC50 ([4]; Mesocricetus auratus, DC3F, relative cytotoxicity, DC-3F): 17.4 µM
IC50 ([10]; Homo sapiens, human leukemic CCRF-CEM cells): 53.3 µM
